A short description of data set [1]: Circular dichroism spectroscopy, percent helicity. The format is physicochemical. Particulars: CD θ220, 10 mM phosphate buffer pH 7.4, 50 μM peptide.
In another data set the target is proteinase K (Parengyodontium album, UniProt P06873). Description: Protease stability assay, proteinase K. It counts as in vitro ADME, fungal.
In another data set the target is pepsin (Sus scrofa, UniProt P00791). Kind of data set: Protease stability assay, pepsin. The format is in vitro ADME, porcine. The conditions noted are these: acidic pH.
Chain of pepsin (P00791 60-385): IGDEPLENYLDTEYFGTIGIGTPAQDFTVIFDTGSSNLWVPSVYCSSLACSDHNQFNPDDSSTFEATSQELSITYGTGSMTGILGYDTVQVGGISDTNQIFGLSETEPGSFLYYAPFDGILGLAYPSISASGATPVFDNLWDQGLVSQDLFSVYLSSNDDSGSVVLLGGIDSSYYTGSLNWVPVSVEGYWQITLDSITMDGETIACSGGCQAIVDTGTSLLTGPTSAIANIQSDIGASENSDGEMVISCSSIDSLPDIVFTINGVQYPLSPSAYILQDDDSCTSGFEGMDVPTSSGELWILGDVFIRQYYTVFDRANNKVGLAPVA

Each structure is given as a SMILES string. Positions of bridges follow the written chain, without caps; N, C: chain ends. Non-standard residues stand in square brackets, D forms with d. Residues, ends and D or L forms follow the SMILES beside them. S5 = C=CCCC[C@](C)(N)C(=O)O

Chain of proteinase K (P06873 106-384): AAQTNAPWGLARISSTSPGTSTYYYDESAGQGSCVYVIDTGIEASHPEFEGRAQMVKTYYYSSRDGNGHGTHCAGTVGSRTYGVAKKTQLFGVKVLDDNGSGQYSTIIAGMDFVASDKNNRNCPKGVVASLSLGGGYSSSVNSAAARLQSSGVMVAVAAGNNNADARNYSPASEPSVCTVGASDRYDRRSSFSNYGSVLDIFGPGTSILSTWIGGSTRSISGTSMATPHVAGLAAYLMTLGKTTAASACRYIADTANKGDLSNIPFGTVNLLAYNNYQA

Turning to `CC(=O)N[C@@H](CC(C)C)C(=O)N[C@H](C(=O)N[C@@H](Cc1ccccc1)C(=O)N[C@@]1(C)CCCC=CCCC[C@@](C)(C(=O)N[C@@H](CCC(N)=O)C(=O)N[C@@H](CC(C)C)C(=O)N[C@H](C(=O)N[C@@H](CO)C(N)=O)[C@@H](C)O)NC(=O)[C@H](Cc2c[nH]c3ccccc23)NC(=O)[C@H](Cc2ccc(O)cc2)NC(=O)[C@H](CCC(=O)O)NC1=O)[C@@H](C)O` [Peptide 2a] (Ac-LTF[S5]EYW[S5]QLTS-NH2; staple 4-8), the Percent helicity in data set [1] was ~60%.

With `CC(=O)N[C@@H](CC(C)C)C(=O)N[C@H](C(=O)N[C@@H](Cc1ccccc1)C(=O)N[C@H]1CCCn2cc(nn2)-c2cccc(c2)-c2cn(nn2)CCC[C@@H](C(=O)N[C@@H](CO)C(N)=O)NC(=O)[C@H](CC(C)C)NC(=O)[C@H](CCC(N)=O)NC(=O)[C@H](C)NC(=O)[C@H](Cc2c[nH]c3ccccc23)NC(=O)[C@H](Cc2ccc(O)cc2)NC(=O)[C@H](CCC(=O)O)NC1=O)[C@@H](C)O` [Peptide 4a], the “Cleavage by / resistance to proteinase K (in words)” value at proteinase K is listed as “partially vulnerable to cleavage”. In addition, at pepsin, the “Cleavage by pepsin (in words)” value is “completely cleaved”. The compound also yielded a Percent helicity in data set [1] of 27%.
